Measured values as given in US8101170B2, “Probiotic health or fitness promoting human or animal foodstuff and/or drinking water additive and use thereof” (Erber Aktiengesellschaft, priority 2005, dated 2012).
“And” between values parts separate entries of the source, which are not always exact repeats. Equal entries are not always repeated. Where two headings read alike, the source gives them in different places.

What was measured:
Assay type in all cases: cell-based
Salmonella choleraesuis = experiment: Agar plate assay, inhibition of pathogenic germs by CE test germs
Campylobacter jejuni = experiment: as above
Clostridium perfringens = test system: Clostridium perfringens
E. coli = experiment: Agar plate assay, inhibition of pathogenic germs by CE test germs

## Enterococcus faecium [DSM 16211]
Salmonella choleraesuis; MRS agar
  inhibition zone to test germ ratio, Salmonella choleraesuis: 1.37
Campylobacter jejuni; MRS agar
  inhibition zone to test germ ratio, Campylobacter jejuni: 1.28
Clostridium perfringens
  inhibition zone to test germ ratio, Clostridium perfringens: 1.43

## Lactobacillus reuteri [DSM 20016]
Salmonella choleraesuis; MRS agar
  inhibition zone to test germ ratio, Salmonella choleraesuis: 1.20
Campylobacter jejuni; MRS agar
  inhibition zone to test germ ratio, Campylobacter jejuni: 1.35
Clostridium perfringens
  inhibition zone to test germ ratio, Clostridium perfringens: 1.54

## Pediococcus acidilactici [DSM 20284]
Salmonella choleraesuis; MRS agar
  inhibition zone to test germ ratio, Salmonella choleraesuis: 1.10
Campylobacter jejuni; MRS agar
  inhibition zone to test germ ratio, Campylobacter jejuni: 1.32
Clostridium perfringens
  inhibition zone to test germ ratio, Clostridium perfringens: 1.35

## Lactobacillus reuteri [DSM 16350]
Salmonella choleraesuis; MRS agar
  inhibition zone to test germ ratio, Salmonella choleraesuis: 1.60
Campylobacter jejuni; MRS agar
  inhibition zone to test germ ratio, Campylobacter jejuni: 1.36
Clostridium perfringens
  inhibition zone to test germ ratio, Clostridium perfringens: 2.12

## Bifidobacterium animalis [DSM 20104]
Salmonella choleraesuis; MRS agar
  inhibition zone to test germ ratio, Salmonella choleraesuis: 0.65
Campylobacter jejuni; MRS agar
  inhibition zone to test germ ratio, Campylobacter jejuni: 0.31
Clostridium perfringens
  inhibition zone to test germ ratio, Clostridium perfringens: 1.42

## Enterococcus faecium [NCIMB 10415]
E. coli
  inhibition zone to test germ ratio, E. coli: 1.37 and 1.35
Salmonella choleraesuis
  inhibition zone to test germ ratio, Salmonella choleraesuis: 1.20
Campylobacter jejuni
  inhibition zone to test germ ratio, Campylobacter jejuni: 1.22
Clostridium perfringens
  inhibition zone to test germ ratio, Clostridium perfringens: 1.31

## Lactobacillus salivarius ssp. salivarius [DSM 16351]
Salmonella choleraesuis; MRS agar
  inhibition zone to test germ ratio, Salmonella choleraesuis: 1.46
Campylobacter jejuni; MRS agar
  inhibition zone to test germ ratio, Campylobacter jejuni: 1.50
Clostridium perfringens
  inhibition zone to test germ ratio, Clostridium perfringens: 2.05

## Lactobacillus salivarius [DSM 20555]
Salmonella choleraesuis; MRS agar
  inhibition zone to test germ ratio, Salmonella choleraesuis: 1.09
Campylobacter jejuni; MRS agar
  inhibition zone to test germ ratio, Campylobacter jejuni: 1.41
Clostridium perfringens
  inhibition zone to test germ ratio, Clostridium perfringens: 1.63
